Results on four compounds are retold here after article PMC6990627 (ACS Omega, 2020).

Experiment [1] has as its system AChE. The conditions noted are these: read-out: AChE IC50, cited from earlier work.
Experiment [2] concerns the target EeAChE (Electrophorus electricus, UniProt O42275). As to the kind of experiment: Ellman assay, EeAChE inhibition. The class given is biochemical. The conditions noted are these: average of three determinations. (In Ellman's method for cholinesterases, released thiocholine reacts with DTNB.)
Experiment [3] deals with T1, eqBChE (Equus caballus, UniProt P81908). Briefly: Ellman assay, eqBChE inhibition. The class given is biochemical, equine. The conditions noted are these: screened at 10 and 100 μM.
T1 sequence (P81908 whole entry): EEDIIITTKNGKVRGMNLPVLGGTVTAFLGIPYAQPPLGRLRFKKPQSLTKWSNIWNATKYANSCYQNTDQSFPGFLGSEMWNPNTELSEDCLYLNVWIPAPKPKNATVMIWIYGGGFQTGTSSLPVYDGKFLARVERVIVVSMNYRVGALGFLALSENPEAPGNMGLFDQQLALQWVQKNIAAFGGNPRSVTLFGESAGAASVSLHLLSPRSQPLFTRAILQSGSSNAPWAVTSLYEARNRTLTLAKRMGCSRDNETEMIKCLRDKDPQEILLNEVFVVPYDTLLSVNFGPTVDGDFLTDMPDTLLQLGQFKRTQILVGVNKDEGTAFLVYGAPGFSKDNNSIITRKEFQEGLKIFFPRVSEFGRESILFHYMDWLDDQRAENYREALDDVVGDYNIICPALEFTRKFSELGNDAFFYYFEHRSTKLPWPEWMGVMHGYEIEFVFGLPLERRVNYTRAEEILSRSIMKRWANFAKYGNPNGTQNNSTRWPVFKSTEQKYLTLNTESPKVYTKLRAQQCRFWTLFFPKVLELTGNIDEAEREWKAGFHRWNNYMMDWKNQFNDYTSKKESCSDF
For experiment [4], the target named is T1, eqBChE. As to the kind of experiment: Enzyme kinetics. The class given is biochemical, equine. The conditions noted are these: Lineweaver-Burk plot.

Molecules are shown by their SMILES. Where “and” joins values, the source holds several entries; their conditions need not be identical. Equal values may be shown once. Where a name gives a salt, the structure may show the parent alone. Read-outs that look alike come from different tables or passages of the source.

Sequence of EeAChE (O42275 24-633): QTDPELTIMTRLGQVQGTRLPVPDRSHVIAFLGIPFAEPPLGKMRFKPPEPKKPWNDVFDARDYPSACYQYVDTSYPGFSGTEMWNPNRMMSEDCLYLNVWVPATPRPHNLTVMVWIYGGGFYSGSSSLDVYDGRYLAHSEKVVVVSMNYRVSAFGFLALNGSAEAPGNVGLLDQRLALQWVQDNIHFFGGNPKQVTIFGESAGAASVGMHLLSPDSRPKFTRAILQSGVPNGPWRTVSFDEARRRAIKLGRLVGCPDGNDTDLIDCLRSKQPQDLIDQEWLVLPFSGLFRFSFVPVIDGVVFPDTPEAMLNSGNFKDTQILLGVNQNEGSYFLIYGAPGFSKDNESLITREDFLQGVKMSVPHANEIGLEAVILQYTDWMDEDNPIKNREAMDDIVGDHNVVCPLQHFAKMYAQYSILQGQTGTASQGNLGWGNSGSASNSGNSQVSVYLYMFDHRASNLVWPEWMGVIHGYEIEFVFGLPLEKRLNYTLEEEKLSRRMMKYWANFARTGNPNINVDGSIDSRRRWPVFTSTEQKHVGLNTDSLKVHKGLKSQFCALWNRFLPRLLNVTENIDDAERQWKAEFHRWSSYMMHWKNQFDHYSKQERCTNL

Turning to `COc1cc(O)c2c(c1)C(=O)c1cc(C)cc(O)c1C2=O` [physcion], the half-inhibitory concentration (IC50) in experiment [1] (ref 19) was 8.25 µM; in experiment [2], 12 µM and 12.2 µM. Also, the “activity against BChE (in words)” value in experiment [3] is “weakly active”.
On to `Cc1cc(O)c2c(c1)C(=O)c1cc(O)cc(O)c1C2=O` [emodin], for which the IC50 in experiment [1] (ref 19) is 9.17 µM; in experiment [1] (ref 20), 21.8 µM; in experiment [2], 15 µM and 15.2 µM. For the same compound, the “activity against BChE (in words)” value in experiment [3] is recorded as “weakly active”.
With `COc1cc2c(cc1OC)C(=O)C(CC1CCN(Cc3ccccc3)CC1)C2` (stereo not drawn) [donepezil HCl, donepezil hydrochloride], the “type of inhibition, eqBChE” value in experiment [4] is “noncompetitive”.
For the compound `Cc1cc(O)c2c(c1)C(=O)c1cccc(O)c1C2=O` [chrysophanol], the IC50 in experiment [1] (ref 19) is 68.6 µM; in experiment [1] (ref 20) it was 75.8 µM; in experiment [2] it was 34 µM and 33.7 µM. Further, in experiment [3], the “activity against BChE (in words)” value is given as “weakly active”.

The IC50 is the concentration at which inhibition is half-maximal.
